Laboratory results from patent publication US20100150890A1, “MEDICINAL COMPOSITION, FOOD OR DRINK HAVING EFFECT OF ENHANCING SYMPATHETIC NERVOUS ACTIVITY” (SUNTORY HOLDINGS LIMITED, priority 2005, published 2010).

Key:
Assay type in all cases: in vivo
[1] = test system: kidney sympathetic nervous activity; test: Rat kidney sympathetic nervous activity after transduodenal administration; details: urethane-anesthetized male rat, transduodenal 10 μg/2 ml per animal, vs physiological saline control; FIG. 3
Description: (§1) In these experiments, use was made of male Mister rats weighing about 300 g which had been fed in a thermostatic chamber (24° C.) with a light-dark cycle of 12-hour intervals (under illumination from 8:00 to 20:00) for 1 week or longer. A single rat was employed for each nervous experiment. The animals were fed with a feed (Oriental Yeast, MF) and water ad libitum. The autonomic nervous activity were examined by fasting the rats for 3 hours on the day of the experiment and then subjecting to an abdominal surgery under urethane-anesthesia at the intermediate point of the light period. Then, the effects of the transduodenal administration of 2,3-dihydro-3,5-dihydroxy-6-methyl-4H-pyran-4-one obtained in Example 1 on the kidney sympathetic nervous activity, stomach vagal (parasympathetic) nervous activity and blood pressure were measured in accordance with the method reported by T. Yamano et al., Neurosci. […] A cannula was inserted into the left femoral artery and then the blood pressure was measured by use of a transducer. […] Electrical nervous activity thus obtained were amplified with a condenser type differential amplifier, monitored with an oscilloscope and recorded on a magnetic tape. […] The data was analyzed based on the average discharge frequency per 5 seconds (pulse/5 sec) and expressed as a percentage by referring to the level before the administration as to 100%. […]

[2] = Rat blood pressure after transduodenal administration (left femoral artery cannula, transducer); details: urethane-anesthetized male rat, transduodenal 10 μg/2 ml per animal, vs physiological saline control; FIG. 4
Description: as §1

[3] = Rat oxygen consumption (energy metabolism) after forced oral administration; details: male SD rats fasted 16 hours, 40 μg/8 ml/kg body weight forced oral, within 60 minutes after administration, 5 rats per group; FIG. 8
Description: Male SD rats aged 7 weeks were preliminarily fed with a solid feed (CE-2: NIPPON CREA) and water ad libitum for 1 week for the habituation to the light-dark cycle of 12-hour intervals. The thus habituated animals were fasted for 16 hours before the administration of the samples and then divided into two groups. Then, 40 μg/8 ml/kg body weight of DDMP and 8 ml/kg body weight of distilled water for injection were forcibly orally administered into the stomach to the respective groups. Within 60 minutes following the administration, oxygen consumption was measured with a metabolic meter for small animals (MK-5000RQ2: manufactured by MUROMACHI KIKAI Co., Ltd.). A combination of a DDMP-administered rat with a water-administered rat was referred to as a single experimental lot and the averages of five combinations (i.e., a DDMP-administered group having 5 rats and a water-administered group having 5 rats) were calculated.

[4] = test system: stomach vagal (parasympathetic) nervous activity; test: Rat stomach vagal (parasympathetic) nervous activity after transduodenal administration; details: urethane-anesthetized male rat, transduodenal 10 μg/2 ml per animal, vs physiological saline control; FIG. 5
Description: as §1

[5] = test system: epididymal white adipose tissue sympathetic nervous activity; test: Rat epididymal white adipose tissue sympathetic nervous activity after transduodenal administration; details: transduodenal administration 10 μg, single rat, FIG. 7
[6] = test system: interscapular brown adipose tissue sympathetic nervous activity; test: Rat interscapular brown adipose tissue sympathetic nervous activity after transduodenal administration; details: transduodenal administration 10 μg, single rat, FIG. 6

CC1=C(O)C(=O)C(O)CO1 (stereo not drawn) [DDMP, 2,3-Dihydro-3,5-dihydroxy-6-methyl-4H-pyran-4-one]
kidney sympathetic nervous activity (discharge frequency vs level before administration) [1]: enhanced | blood pressure [2]: not elevated | oxygen consumption compared with the water-administered group [3]: increase in oxygen consumption | stomach vagal (parasympathetic) nervous activity [4]: reduced | epididymal white adipose tissue sympathetic nervous activity [5]: enhanced | interscapular brown adipose tissue sympathetic nervous activity [6]: enhanced
